# Experimental data published in ChEMBL document CHEMBL1201862, “PubChem BioAssay data set” (2004).
# Calls of active or inactive are those of the source.
# Columns and labels:
# [1] = target: T1, Eukaryotic translation initiation factor 2-alpha kinase 3 (Homo sapiens, UniProt Q9NZJ5); test: Dose response cell-based high-throughput screening assay to measure PERK inhibition. [Related pubchem assays: 1416 ]; assay type: functional
# T1 sequence (Q9NZJ5 whole entry): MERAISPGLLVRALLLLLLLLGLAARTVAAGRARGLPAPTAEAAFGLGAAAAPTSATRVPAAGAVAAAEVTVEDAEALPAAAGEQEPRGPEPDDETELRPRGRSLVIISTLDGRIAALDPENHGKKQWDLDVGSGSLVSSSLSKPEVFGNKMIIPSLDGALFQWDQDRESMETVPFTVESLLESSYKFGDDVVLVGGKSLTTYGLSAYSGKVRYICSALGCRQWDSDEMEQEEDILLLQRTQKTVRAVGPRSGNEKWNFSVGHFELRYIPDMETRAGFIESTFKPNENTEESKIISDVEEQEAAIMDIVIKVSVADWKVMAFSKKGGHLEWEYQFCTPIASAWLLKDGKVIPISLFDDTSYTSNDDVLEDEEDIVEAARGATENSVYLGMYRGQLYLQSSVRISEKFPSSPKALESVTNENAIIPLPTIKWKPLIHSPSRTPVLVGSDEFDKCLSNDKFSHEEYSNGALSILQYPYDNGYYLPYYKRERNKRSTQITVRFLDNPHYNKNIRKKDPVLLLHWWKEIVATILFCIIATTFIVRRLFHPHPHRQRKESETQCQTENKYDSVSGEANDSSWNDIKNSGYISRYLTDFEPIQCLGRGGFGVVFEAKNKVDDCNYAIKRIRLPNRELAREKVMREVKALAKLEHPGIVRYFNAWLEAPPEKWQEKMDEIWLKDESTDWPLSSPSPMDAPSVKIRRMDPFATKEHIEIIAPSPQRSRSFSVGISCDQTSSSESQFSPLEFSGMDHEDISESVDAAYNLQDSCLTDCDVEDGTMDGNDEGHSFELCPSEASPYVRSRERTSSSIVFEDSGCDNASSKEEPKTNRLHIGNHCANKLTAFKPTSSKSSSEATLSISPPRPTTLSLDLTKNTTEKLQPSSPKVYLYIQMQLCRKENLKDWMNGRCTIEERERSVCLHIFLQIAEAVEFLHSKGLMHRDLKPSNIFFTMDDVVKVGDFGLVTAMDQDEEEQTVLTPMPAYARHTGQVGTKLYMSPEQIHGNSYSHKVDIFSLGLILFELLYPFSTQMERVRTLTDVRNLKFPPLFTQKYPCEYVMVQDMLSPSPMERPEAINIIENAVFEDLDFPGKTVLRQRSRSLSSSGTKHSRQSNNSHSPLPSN
# [2] = target: T1, Eukaryotic translation initiation factor 2-alpha kinase 3; test: Counterscreen assay for PERK inhibitors: Dose response cell-based high throughput screening assay to measure inhibition of PERK at 6 hours. [Related pubchem assays: 1522, 1416 ]; assay type: functional
# [3] = target: Neurotensin receptor type 1 (Homo sapiens, UniProt P30989); assay type: functional;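 note: Image-based confirmatory dose-response assay measuring agonist activity at NTR1; NTR1-expressing U2OS osteosarcoma cells imaged for beta-arrestin GFP spot formation; agonist potency where compounds increase beta-arrestin recruitment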
# [4] = target: T2, Acyl-homoserine lactone acylase PvdQ (Pseudomonas aeruginosa (strain LESB58), UniProt Q9I194); test: P. aeruginosa PvdQ acylase inhibitors, dose response, biochemical, fluorescence, plate reader and imaging, cherry-picks (AID 493231)
# T2 sequence (Q9I194 whole entry): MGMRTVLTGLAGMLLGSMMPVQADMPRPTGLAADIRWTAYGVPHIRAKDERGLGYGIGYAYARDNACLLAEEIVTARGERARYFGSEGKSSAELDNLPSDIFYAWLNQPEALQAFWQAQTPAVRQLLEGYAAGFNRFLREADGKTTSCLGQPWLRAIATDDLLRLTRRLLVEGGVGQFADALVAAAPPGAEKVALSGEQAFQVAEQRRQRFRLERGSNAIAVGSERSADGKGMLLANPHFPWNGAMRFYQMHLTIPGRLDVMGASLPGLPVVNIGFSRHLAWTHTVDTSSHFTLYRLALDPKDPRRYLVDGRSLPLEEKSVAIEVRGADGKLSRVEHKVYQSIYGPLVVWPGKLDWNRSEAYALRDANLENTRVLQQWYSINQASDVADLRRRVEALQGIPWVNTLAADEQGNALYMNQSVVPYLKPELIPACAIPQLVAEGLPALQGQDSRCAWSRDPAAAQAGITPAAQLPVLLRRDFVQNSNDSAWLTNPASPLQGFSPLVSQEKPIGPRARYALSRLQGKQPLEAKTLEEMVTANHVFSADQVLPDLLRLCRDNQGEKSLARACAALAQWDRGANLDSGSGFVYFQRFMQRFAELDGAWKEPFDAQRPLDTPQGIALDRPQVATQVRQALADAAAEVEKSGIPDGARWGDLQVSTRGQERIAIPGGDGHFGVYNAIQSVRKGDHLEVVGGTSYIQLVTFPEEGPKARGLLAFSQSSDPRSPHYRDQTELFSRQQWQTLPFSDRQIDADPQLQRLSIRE
# [5] = target: T3, Ubiquitin-conjugating enzyme E2 N (Homo sapiens, UniProt P61088); assay type: functional
# T3 sequence (P61088 whole entry): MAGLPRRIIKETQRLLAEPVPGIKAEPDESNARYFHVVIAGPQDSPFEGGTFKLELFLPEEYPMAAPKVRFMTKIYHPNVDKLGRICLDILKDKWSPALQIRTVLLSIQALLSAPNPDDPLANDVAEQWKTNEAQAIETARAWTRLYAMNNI
# Bcl-2-related protein A1 = target: T4, Bcl-2-related protein A1 (Mus musculus, UniProt Q07440); assay type: functional;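 note: confirmatory dose–response counterscreen on Bfl-1, used to check hits from a UBC13 polyubiquitin inhibitor campaign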
# T4 sequence (Q07440 whole entry): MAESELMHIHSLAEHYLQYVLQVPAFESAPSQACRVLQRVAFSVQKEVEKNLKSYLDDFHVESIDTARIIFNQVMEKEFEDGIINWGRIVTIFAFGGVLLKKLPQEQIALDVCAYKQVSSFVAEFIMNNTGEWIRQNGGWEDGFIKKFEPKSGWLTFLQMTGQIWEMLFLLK
# [6] = target: T3, Ubiquitin-conjugating enzyme E2 N; assay type: functional; remark: listed apart in the source
# [7] = target: T5, Voltage-gated N-type calcium channel alpha-1B subunit/Amyloid beta A4 precursor protein-binding family A member 1 (Homo sapiens, UniProt Q00975+Q02410); assay type: protein assay
# T5 sequence (Q00975 whole entry): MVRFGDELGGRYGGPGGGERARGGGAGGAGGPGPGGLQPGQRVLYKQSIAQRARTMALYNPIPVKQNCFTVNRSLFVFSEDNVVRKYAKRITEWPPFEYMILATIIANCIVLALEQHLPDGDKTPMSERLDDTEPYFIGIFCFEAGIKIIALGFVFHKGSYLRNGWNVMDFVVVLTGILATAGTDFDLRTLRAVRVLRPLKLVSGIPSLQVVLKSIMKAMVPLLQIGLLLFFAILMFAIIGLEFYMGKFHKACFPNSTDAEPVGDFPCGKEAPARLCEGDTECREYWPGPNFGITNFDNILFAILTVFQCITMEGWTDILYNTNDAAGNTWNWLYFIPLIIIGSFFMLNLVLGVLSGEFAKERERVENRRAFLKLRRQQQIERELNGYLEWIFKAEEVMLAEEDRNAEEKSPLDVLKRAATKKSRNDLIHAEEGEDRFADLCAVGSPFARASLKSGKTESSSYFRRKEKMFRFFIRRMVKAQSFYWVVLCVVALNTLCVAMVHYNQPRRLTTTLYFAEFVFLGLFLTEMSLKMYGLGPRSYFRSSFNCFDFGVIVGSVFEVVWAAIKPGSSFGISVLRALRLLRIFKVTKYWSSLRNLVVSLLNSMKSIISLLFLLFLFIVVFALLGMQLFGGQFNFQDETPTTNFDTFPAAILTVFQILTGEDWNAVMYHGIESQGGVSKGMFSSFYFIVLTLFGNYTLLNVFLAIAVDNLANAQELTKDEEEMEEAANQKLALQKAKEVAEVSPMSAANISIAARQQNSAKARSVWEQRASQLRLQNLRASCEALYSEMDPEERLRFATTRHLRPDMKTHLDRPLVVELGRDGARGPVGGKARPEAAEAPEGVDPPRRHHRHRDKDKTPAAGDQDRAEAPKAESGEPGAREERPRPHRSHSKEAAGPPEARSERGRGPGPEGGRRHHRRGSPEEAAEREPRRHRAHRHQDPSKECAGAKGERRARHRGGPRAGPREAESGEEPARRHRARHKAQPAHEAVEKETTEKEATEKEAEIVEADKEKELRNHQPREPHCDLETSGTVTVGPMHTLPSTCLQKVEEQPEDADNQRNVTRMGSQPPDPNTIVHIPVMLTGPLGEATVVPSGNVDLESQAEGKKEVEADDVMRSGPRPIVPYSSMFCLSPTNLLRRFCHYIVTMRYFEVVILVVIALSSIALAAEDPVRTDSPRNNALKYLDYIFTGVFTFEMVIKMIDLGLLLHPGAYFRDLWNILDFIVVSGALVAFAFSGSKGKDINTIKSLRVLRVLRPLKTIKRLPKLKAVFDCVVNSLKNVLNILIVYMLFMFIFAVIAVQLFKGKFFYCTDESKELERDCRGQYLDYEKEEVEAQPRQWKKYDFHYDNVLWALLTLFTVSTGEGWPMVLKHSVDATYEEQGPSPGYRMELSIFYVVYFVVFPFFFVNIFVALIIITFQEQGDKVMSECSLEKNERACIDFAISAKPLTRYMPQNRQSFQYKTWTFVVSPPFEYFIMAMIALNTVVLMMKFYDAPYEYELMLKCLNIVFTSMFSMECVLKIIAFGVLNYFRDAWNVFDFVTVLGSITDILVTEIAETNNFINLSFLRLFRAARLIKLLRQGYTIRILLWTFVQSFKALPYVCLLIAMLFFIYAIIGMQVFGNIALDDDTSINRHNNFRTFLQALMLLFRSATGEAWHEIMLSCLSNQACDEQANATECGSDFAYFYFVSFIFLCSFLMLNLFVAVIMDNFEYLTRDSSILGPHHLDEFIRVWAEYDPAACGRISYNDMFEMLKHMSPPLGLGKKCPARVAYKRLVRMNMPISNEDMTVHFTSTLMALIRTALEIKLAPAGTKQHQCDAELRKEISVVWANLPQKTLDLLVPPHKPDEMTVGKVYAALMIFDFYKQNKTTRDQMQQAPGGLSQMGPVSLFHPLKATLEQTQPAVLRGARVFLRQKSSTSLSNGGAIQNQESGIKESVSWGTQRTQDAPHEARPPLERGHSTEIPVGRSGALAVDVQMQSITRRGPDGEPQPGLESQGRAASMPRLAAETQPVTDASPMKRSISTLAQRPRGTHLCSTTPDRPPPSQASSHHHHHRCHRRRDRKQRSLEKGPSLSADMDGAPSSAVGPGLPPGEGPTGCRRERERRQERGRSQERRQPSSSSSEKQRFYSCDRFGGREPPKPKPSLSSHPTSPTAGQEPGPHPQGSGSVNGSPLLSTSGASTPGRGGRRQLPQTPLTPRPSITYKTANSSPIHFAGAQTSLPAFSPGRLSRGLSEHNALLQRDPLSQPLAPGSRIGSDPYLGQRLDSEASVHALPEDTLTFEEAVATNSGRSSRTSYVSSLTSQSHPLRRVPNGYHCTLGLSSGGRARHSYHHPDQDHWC
# T5 sequence (Q02410 whole entry): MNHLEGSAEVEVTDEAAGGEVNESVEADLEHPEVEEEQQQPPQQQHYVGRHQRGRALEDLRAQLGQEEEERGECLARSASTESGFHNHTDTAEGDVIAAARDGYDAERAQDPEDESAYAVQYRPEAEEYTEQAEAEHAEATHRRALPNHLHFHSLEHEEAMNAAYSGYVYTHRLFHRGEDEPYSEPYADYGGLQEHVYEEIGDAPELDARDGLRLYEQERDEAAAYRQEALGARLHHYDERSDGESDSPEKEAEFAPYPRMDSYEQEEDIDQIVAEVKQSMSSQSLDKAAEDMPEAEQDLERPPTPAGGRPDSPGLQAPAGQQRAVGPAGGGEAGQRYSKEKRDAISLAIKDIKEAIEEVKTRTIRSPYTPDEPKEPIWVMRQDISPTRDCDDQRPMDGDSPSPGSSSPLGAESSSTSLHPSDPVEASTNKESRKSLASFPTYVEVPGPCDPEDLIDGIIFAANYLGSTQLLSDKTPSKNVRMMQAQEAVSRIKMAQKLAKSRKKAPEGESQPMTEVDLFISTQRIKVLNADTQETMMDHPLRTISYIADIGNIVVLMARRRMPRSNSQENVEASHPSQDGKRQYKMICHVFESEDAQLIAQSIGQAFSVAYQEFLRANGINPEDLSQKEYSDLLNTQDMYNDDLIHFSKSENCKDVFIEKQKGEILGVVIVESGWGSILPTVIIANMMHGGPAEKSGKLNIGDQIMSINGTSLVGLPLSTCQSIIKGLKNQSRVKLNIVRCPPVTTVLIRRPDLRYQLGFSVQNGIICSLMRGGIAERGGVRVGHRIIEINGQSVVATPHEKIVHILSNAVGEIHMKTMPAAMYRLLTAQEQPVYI
# [8] = target: T5, Voltage-gated N-type calcium channel alpha-1B subunit/Amyloid beta A4 precursor protein-binding family A member 1; assay type: protein assay; remark: listed apart in the source
# [9] = target: T6, Carboxy-terminal domain RNA polymerase II polypeptide A small phosphatase 1 (Homo sapiens, UniProt Q9GZU7); test: inhibitors of CTDSP1, concentration-response testing, biochemical assay, absorbance-based, actives from ultra-high-throughput screening (AID 540297); assay type: functional
# T6 sequence (Q9GZU7 whole entry): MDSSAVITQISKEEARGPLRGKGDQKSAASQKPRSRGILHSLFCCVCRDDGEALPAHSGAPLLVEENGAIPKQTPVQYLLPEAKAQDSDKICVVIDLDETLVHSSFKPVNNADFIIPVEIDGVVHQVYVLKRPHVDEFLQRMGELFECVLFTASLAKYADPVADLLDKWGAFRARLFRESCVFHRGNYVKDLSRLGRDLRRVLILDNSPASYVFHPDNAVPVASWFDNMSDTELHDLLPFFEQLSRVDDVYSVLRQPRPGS
# [10] = target: Induced myeloid leukemia cell differentiation protein Mcl-1 (Homo sapiens, UniProt Q07820); assay type: functional
# [11] = target: Eukaryotic translation initiation factor 4E (Mus musculus, UniProt P63073); test: eIF4E–eIF4G protein interaction inhibitors, dose response, biochemical, TR-FRET (AID 855); assay type: functional;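 note: potency for disrupting eIF4E binding to eIF4GI seen as loss of FRET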
# [12] = target: T7, Replicative DNA helicase DnaB (Mycobacterium tuberculosis, UniProt P9WMR3); test: DnaB intein splicing inhibitors, dose response, biochemical, cell-free fluorescence (AID 449749); assay type: functional
# T7 sequence (P9WMR3 whole entry): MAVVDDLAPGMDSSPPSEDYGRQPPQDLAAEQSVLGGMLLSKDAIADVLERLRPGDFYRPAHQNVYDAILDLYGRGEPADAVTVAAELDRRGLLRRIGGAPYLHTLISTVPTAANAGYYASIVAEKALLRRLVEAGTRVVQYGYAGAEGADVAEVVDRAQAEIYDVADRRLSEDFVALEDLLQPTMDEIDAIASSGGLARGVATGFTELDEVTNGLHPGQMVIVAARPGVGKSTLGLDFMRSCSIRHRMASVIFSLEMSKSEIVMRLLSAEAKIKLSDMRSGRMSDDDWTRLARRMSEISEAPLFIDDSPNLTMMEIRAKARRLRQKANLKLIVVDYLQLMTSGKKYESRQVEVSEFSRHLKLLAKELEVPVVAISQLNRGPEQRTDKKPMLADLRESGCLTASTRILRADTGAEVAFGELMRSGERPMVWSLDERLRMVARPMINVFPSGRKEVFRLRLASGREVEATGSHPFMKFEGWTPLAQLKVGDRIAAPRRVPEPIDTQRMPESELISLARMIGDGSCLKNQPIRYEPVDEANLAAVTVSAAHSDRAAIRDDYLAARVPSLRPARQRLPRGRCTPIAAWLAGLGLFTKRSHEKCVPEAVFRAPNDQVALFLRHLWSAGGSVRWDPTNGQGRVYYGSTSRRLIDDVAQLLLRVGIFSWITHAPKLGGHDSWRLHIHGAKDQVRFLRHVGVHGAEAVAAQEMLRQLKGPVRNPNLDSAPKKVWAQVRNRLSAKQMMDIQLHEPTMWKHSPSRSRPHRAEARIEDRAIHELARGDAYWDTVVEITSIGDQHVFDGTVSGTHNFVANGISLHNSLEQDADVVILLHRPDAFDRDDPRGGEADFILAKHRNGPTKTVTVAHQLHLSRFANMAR
# [13] = A cytotoxicity screen of small molecule inhibitors of the PhoP region in Salmonella typhi identified in the primary screen. [Related pubchem assays: 1850, 1864, 1985 ]; assay type: functional
# Genome polyprotein = Genome polyprotein (dengue virus type 2, UniProt P29990); test: Dengue-2 NS5 methyltransferase inhibitors, primary screen, biochemical, confirmation dose response (AID 588689); assay type: functional
# Sequence of Genome polyprotein (P29990 2492-3391 limits assumed): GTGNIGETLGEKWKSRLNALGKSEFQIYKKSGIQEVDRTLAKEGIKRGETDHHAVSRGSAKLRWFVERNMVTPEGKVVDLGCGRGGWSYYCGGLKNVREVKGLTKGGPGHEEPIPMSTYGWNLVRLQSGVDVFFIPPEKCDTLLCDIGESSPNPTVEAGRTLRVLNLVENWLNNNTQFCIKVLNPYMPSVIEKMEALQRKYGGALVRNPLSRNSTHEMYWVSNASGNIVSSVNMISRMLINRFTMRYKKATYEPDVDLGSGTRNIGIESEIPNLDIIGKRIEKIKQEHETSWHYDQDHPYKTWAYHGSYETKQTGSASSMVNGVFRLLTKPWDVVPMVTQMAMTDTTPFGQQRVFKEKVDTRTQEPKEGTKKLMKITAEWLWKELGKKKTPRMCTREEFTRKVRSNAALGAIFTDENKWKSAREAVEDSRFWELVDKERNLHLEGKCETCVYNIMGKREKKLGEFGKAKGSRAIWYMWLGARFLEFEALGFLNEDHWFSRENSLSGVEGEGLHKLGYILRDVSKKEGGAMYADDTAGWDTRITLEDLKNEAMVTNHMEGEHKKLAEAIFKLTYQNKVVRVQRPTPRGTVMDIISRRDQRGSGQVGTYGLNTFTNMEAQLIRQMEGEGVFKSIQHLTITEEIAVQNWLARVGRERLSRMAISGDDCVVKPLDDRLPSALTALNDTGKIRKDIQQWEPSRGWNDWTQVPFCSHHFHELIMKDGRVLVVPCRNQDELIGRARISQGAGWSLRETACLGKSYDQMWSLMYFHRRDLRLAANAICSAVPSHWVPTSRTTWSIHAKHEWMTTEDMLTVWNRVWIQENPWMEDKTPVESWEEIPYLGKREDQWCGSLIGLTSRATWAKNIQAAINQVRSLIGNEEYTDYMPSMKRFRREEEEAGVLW
# Protein RecA = target: T8, Protein RecA (Mycobacterium tuberculosis, UniProt P9WHJ3); test: Fluorescence Cell-Free Homogeneous Dose Retest to Identify Inhibitors of RecA-Intein Splicing Activity. [Related pubchem assays (depositor defined):AID2097, AID2223, AID489010, AID492950]; assay type: functional
# T8 sequence (P9WHJ3 whole entry): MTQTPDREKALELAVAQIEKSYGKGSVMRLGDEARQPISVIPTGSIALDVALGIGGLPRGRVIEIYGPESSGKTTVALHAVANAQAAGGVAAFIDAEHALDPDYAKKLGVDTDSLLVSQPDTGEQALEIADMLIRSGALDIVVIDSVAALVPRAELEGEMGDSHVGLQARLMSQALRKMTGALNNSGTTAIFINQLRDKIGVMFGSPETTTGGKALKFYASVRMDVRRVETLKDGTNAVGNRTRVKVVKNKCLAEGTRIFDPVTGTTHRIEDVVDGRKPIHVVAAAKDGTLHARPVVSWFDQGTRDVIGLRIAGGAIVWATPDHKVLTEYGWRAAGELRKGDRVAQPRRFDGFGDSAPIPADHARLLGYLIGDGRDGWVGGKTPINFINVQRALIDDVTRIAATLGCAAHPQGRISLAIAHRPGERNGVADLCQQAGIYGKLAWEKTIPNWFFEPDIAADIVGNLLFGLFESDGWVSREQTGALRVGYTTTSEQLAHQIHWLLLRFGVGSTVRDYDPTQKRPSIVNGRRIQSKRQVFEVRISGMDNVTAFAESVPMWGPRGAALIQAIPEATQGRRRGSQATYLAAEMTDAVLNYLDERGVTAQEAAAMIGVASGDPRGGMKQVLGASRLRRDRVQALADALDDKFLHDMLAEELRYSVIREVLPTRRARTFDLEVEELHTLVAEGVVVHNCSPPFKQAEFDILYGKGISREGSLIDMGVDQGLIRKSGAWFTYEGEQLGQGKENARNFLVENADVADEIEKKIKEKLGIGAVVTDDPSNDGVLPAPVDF
# Cytochrome P450 2C19 = Cytochrome P450 2C19 (Homo sapiens, UniProt P33261); test: Cytochrome panel assay with activity outcomes. Panel member name: p450-cyp2c19 Compounds with AC50 equal or less than 10 uM are considered active; assay type: functional
# Sequence of Cytochrome P450 2C19 (P33261 whole entry): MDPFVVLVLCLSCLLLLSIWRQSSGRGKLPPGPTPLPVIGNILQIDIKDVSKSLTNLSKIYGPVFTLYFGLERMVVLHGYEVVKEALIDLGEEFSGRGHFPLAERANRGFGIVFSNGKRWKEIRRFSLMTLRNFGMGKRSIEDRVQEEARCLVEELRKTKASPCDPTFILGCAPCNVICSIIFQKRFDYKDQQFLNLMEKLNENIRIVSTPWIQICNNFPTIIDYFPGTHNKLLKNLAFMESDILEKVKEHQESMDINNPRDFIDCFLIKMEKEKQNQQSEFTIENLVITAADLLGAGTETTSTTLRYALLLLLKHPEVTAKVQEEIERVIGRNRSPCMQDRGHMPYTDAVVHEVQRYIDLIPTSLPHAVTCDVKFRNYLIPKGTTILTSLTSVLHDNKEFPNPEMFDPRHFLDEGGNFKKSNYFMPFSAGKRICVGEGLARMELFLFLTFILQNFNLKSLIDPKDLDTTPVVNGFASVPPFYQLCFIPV
# [14] = target: DNA dC->dU-editing enzyme APOBEC-3G (Homo sapiens, UniProt Q9HC16); test: Dose Response confirmation of small molecule APOBEC3G DNA Deaminase Inhibitors via a fluorescence-based single-stranded DNA deaminase assay. [Related pubchem assays (depositor defined):AID493012, AID493028]; assay type: functional
# Sequence of DNA dC->dU-editing enzyme APOBEC-3G (Q9HC16 whole entry): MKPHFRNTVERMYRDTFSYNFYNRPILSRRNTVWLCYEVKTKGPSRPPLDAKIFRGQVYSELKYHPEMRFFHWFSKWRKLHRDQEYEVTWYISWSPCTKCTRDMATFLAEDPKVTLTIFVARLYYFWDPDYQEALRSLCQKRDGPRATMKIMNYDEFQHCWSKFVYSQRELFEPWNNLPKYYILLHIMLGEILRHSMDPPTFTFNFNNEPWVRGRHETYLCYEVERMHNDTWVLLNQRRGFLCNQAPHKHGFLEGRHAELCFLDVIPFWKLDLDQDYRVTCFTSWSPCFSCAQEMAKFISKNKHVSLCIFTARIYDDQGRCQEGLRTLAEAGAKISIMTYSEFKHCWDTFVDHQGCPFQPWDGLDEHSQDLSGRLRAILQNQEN
smiles,measurement,setting,value
O=C(NC(=S)Nc1ccc2oc(=O)ccc2c1)c1ccccc1F,EC50,[1],> 55.7 µM (not active)
same,EC50,[2],> 55.7 µM (not active)
COc1cc2c(cc1OC)C(SC)=NC(C)(C)C2,EC50,[3],9.39 µM (active)
Cc1cc(NC(=O)c2cc([N+](=O)[O-])cc([N+](=O)[O-])c2C)no1,AC50,[4],3.11 µM (active)
Cc1ccc(S(=O)(=O)NCCC(C)C)cc1[N+](=O)[O-],AC50,[4],12.5 µM (active)
N#CN(Cc1ccccc1)Cc1ccccc1,AC50,[4],1.6 µM (active)
CCOc1ccc(-c2nc(S(=O)(=O)c3ccccc3)c(NC)o2)cc1,IC50,[5],19 µM (active)
same,IC50,Bcl-2-related protein A1,> 20 µM (inactive)
same,IC50,[6],> 20 µM (inactive)
NC1=NC(=Nc2cccc(S(N)(=O)=O)c2)c2ccccc21,EC50,[1],> 55.7 µM (not active)
same,EC50,[2],> 55.7 µM (not active)
CC(C)N(C(=O)/C=C/c1cccc([N+](=O)[O-])c1)C(C)C,EC50,[1],> 55.7 µM (not active)
same,EC50,[2],> 55.7 µM (not active)
CC(=O)c1ccc(NC(=O)CSc2ccsc2[N+](=O)[O-])cc1,IC50,[7],48.2 µM (active)
same,IC50,[8],6 µM (active)
same,IC50,[9],3.83 µM (active)
same,IC50,[10],< 0.4 µM (not active)
same,IC50,[11],50 µM (inactive)
COc1cccc(C(c2c(C)[nH]n(-c3ccccc3)c2=O)c2c(C)[nH]n(-c3ccccc3)c2=O)c1O,AC50,[12],1.18 µM (active)
same,EC50,[13],> 50 µM (active)
same,IC50,Genome polyprotein,38.8 µM (active)
same,EC50,Protein RecA,0.829 µM (active)
same,AC50,Cytochrome P450 2C19,inconclusive
Sc1nnc(-c2ccco2)n1/N=C/c1ccccn1,IC50,[14],9.12 µM (active)
